Experimental data from PMC6136660 (Steroids, 2018).

System: white blood cells and subsets (lymphocytes, neutrophils, eosinophils)
Test: Differential white blood cell counts (immune suppression), MAD
Assay type: in vivo, human
Conditions: for Eosinophils: mean; for Lymphocytes / Neutrophil cell counts / White blood cells counts: mean±SEM, in 10^9/L (unit assumed)
Description: A single dose of pharmacological glucocorticoids results in rapid changes in peripheral blood white cell counts, with increased neutrophils, and decreased lymphocytes. Increases of neutrophils are from release from peripheral tissues, whereas loss of lymphocytes is due to induction of apoptosis. Differential white blood cell counts were studied in all Phase 1 MAD subjects. […]
placebo. White blood cells and subsets (lymphocytes, neutrophils, eosinophils) were measured at screening, day -1, pre-dose on days 1-14, day 17, and at follow-up (recovery). Day 1 (pre-dose), Day 2 (24 hr after first dose), Day 14 and follow-up (recovery) time points are graphed […]

[1] = MAD 1.0 mg/kg, Day 1 predose, baseline
[2] = MAD 1.0 mg/kg, Day 17 (3 days after last dose)
[3] = MAD 1.0 mg/kg, Day 21 follow-up
[4] = MAD 1.0 mg/kg, Day -1, baseline
[5] = MAD 1.0 mg/kg, Screening, baseline
[6] = MAD 3.0 mg/kg, Day 1 predose, baseline
[7] = MAD 3.0 mg/kg, Day 17 (3 days after last dose)
[8] = MAD 3.0 mg/kg, Day 21 follow-up
[9] = MAD 3.0 mg/kg, Day -1, baseline
[10] = MAD 3.0 mg/kg, Screening, baseline
[11] = MAD 9.0 mg/kg, Day 1 predose, baseline
[12] = MAD 9.0 mg/kg, Day 17 (3 days after last dose)
[13] = MAD 9.0 mg/kg, Day 21 follow-up
[14] = MAD 9.0 mg/kg, Day -1, baseline
[15] = MAD 9.0 mg/kg, Screening, baseline
[16] = MAD 20.0 mg/kg, Day 1 predose, baseline
[17] = MAD 20.0 mg/kg, Day 17 (3 days after last dose)
[18] = MAD 20.0 mg/kg, Day 21 follow-up
[19] = MAD 20.0 mg/kg, Day -1, baseline
[20] = MAD 20.0 mg/kg, Screening, baseline

C[C@@H]1C[C@H]2[C@@H]3CCC4=CC(=O)C=C[C@]4(C)C3=CC[C@]2(C)[C@@]1(O)C(=O)CO [vamorolone]
Eosinophils [1]: 0.17 10^9/L | Lymphocytes [1]: 1.9 ± 0.4 | Neutrophil cell counts [1]: 2.8 ± 1.0 | White blood cells counts [1]: 5.2 ± 1.0 | Eosinophils (MAD 1.0 mg/kg, Day 2 predose): 0.17 10^9/L | Lymphocytes (MAD 1.0 mg/kg, Day 2 predose): 1.8 ± 0.3 | Neutrophil cell counts (MAD 1.0 mg/kg, Day 2 predose): 3.0 ± 0.9 | White blood cells counts (MAD 1.0 mg/kg, Day 2 predose): 5.3 ± 0.9 | Eosinophils (MAD 1.0 mg/kg, Day 3 predose): 0.17 10^9/L | Lymphocytes (MAD 1.0 mg/kg, Day 3 predose): 2.1 ± 0.2 | Neutrophil cell counts (MAD 1.0 mg/kg, Day 3 predose): 2.8 ± 0.8 | White blood cells counts (MAD 1.0 mg/kg, Day 3 predose): 5.4 ± 0.8 | Eosinophils (MAD 1.0 mg/kg, Day 7 predose): 0.2 10^9/L | Lymphocytes (MAD 1.0 mg/kg, Day 7 predose): 2.1 ± 0.3 | Neutrophil cell counts (MAD 1.0 mg/kg, Day 7 predose): 3.1 ± 0.9 | White blood cells counts (MAD 1.0 mg/kg, Day 7 predose): 5.9 ± 0.7 | Eosinophils (MAD 1.0 mg/kg, Day 12 predose): 0.2 10^9/L | Lymphocytes (MAD 1.0 mg/kg, Day 12 predose): 2.3 ± 0.3 | Neutrophil cell counts (MAD 1.0 mg/kg, Day 12 predose): 3.2 ± 1.0 | White blood cells counts (MAD 1.0 mg/kg, Day 12 predose): 6.1 ± 0.9 | Eosinophils (MAD 1.0 mg/kg, Day 14 predose): 0.18 10^9/L | Lymphocytes (MAD 1.0 mg/kg, Day 14 predose): 2.3 ± 0.2 | Neutrophil cell counts (MAD 1.0 mg/kg, Day 14 predose): 3.0 ± 1.0 | White blood cells counts (MAD 1.0 mg/kg, Day 14 predose): 5.9 ± 0.9 | Eosinophils [2]: 0.17 10^9/L | Lymphocytes [2]: 2.1 ± 0.4 | Neutrophil cell counts [2]: 3.0 ± 0.8 | White blood cells counts [2]: 5.7 ± 0.6 | Eosinophils [3]: 0.15 10^9/L | Lymphocytes [3]: 2.0 ± 0.2 | Neutrophil cell counts [3]: 3.0 ± 0.6 | White blood cells counts [3]: 5.5 ± 0.7 | Eosinophils [4]: 0.18 10^9/L | Lymphocytes [4]: 2.1 ± 0.5 | Neutrophil cell counts [4]: 2.8 ± 0.9 | White blood cells counts [4]: 5.5 ± 0.8 | Eosinophils [5]: 0.13 10^9/L | Lymphocytes [5]: 1.8 ± 0.5 | Neutrophil cell counts [5]: 3.6 ± 2.0 | White blood cells counts [5]: 5.9 ± 2.2 | Eosinophils [6]: 0.23 10^9/L | Lymphocytes [6]: 1.8 ± 0.6 | Neutrophil cell counts [6]: 3.4 ± 1.3 | White blood cells counts [6]: 5.8 ± 2.0 | Eosinophils (MAD 3.0 mg/kg, Day 2 predose): 0.23 10^9/L | Lymphocytes (MAD 3.0 mg/kg, Day 2 predose): 2.0 ± 0.4 | Neutrophil cell counts (MAD 3.0 mg/kg, Day 2 predose): 3.4 ± 1.2 | White blood cells counts (MAD 3.0 mg/kg, Day 2 predose): 5.9 ± 1.5 | Eosinophils (MAD 3.0 mg/kg, Day 3 predose): 0.2 10^9/L | Lymphocytes (MAD 3.0 mg/kg, Day 3 predose): 2.1 ± 0.7 | Neutrophil cell counts (MAD 3.0 mg/kg, Day 3 predose): 3.4 ± 1.4 | White blood cells counts (MAD 3.0 mg/kg, Day 3 predose): 6.1 ± 2.2 | Eosinophils (MAD 3.0 mg/kg, Day 7 predose): 0.18 10^9/L | Lymphocytes (MAD 3.0 mg/kg, Day 7 predose): 2.4 ± 0.8 | Neutrophil cell counts (MAD 3.0 mg/kg, Day 7 predose): 3.3 ± 0.9 | White blood cells counts (MAD 3.0 mg/kg, Day 7 predose): 6.3 ± 2.0 | Eosinophils (MAD 3.0 mg/kg, Day 12 predose): 0.18 10^9/L | Lymphocytes (MAD 3.0 mg/kg, Day 12 predose): 2.1 ± 0.7 | Neutrophil cell counts (MAD 3.0 mg/kg, Day 12 predose): 3.2 ± 1.1 | White blood cells counts (MAD 3.0 mg/kg, Day 12 predose): 6.0 ± 2.0 | Eosinophils (MAD 3.0 mg/kg, Day 14 predose): 0.2 10^9/L | Lymphocytes (MAD 3.0 mg/kg, Day 14 predose): 2.2 ± 0.6 | Neutrophil cell counts (MAD 3.0 mg/kg, Day 14 predose): 3.0 ± 1.1 | White blood cells counts (MAD 3.0 mg/kg, Day 14 predose): 5.8 ± 1.8 | Eosinophils [7]: 0.17 10^9/L | Lymphocytes [7]: 2.0 ± 0.5 | Neutrophil cell counts [7]: 4.0 ± 1.1 | White blood cells counts [7]: 6.6 ± 1.6 | Eosinophils [8]: 0.18 10^9/L | Lymphocytes [8]: 1.8 ± 0.6 | Neutrophil cell counts [8]: 3.9 ± 1.4 | White blood cells counts [8]: 6.3 ± 1.6 | Eosinophils [9]: 0.2 10^9/L | Lymphocytes [9]: 1.9 ± 0.6 | Neutrophil cell counts [9]: 3.5 ± 1.4 | White blood cells counts [9]: 6.1 ± 1.9 | Eosinophils [10]: 0.18 10^9/L | Lymphocytes [10]: 2.0 ± 1.0 | Neutrophil cell counts [10]: 3.5 ± 1.8 | White blood cells counts [10]: 6.2 ± 2.9 | Eosinophils [11]: 0.1 10^9/L | Lymphocytes [11]: 1.8 ± 0.4 | Neutrophil cell counts [11]: 2.9 ± 0.9 | White blood cells counts [11]: 5.2 ± 1.1 | Eosinophils (MAD 9.0 mg/kg, Day 2 predose): 0.13 10^9/L | Lymphocytes (MAD 9.0 mg/kg, Day 2 predose): 2.5 ± 0.7 | Neutrophil cell counts (MAD 9.0 mg/kg, Day 2 predose): 3.7 ± 1.1 | White blood cells counts (MAD 9.0 mg/kg, Day 2 predose): 6.7 ± 1.2 | Eosinophils (MAD 9.0 mg/kg, Day 3 predose): 0.1 10^9/L | Lymphocytes (MAD 9.0 mg/kg, Day 3 predose): 2.7 ± 0.7 | Neutrophil cell counts (MAD 9.0 mg/kg, Day 3 predose): 3.6 ± 0.7 | White blood cells counts (MAD 9.0 mg/kg, Day 3 predose): 6.8 ± 1.0 | Eosinophils (MAD 9.0 mg/kg, Day 7 predose): 0.1 10^9/L | Lymphocytes (MAD 9.0 mg/kg, Day 7 predose): 2.6 ± 0.6 | Neutrophil cell counts (MAD 9.0 mg/kg, Day 7 predose): 3.4 ± 1.0 | White blood cells counts (MAD 9.0 mg/kg, Day 7 predose): 6.6 ± 1.3 | Eosinophils (MAD 9.0 mg/kg, Day 12 predose): 0.12 10^9/L | Lymphocytes (MAD 9.0 mg/kg, Day 12 predose): 2.8 ± 0.6 | Neutrophil cell counts (MAD 9.0 mg/kg, Day 12 predose): 3.5 ± 0.9 | White blood cells counts (MAD 9.0 mg/kg, Day 12 predose): 6.8 ± 0.9 | Eosinophils (MAD 9.0 mg/kg, Day 14 predose): 0.13 10^9/L | Lymphocytes (MAD 9.0 mg/kg, Day 14 predose): 2.6 ± 0.6 | Neutrophil cell counts (MAD 9.0 mg/kg, Day 14 predose): 3.6 ± 1.0 | White blood cells counts (MAD 9.0 mg/kg, Day 14 predose): 6.8 ± 1.3 | Eosinophils [12]: 0.08 10^9/L | Lymphocytes [12]: 1.9 ± 0.5 | Neutrophil cell counts [12]: 3.1 ± 0.7 | White blood cells counts [12]: 5.5 ± 0.7 | Eosinophils [13]: 0.12 10^9/L | Lymphocytes [13]: 1.8 ± 0.7 | Neutrophil cell counts [13]: 2.9 ± 1.0 | White blood cells counts [13]: 5.2 ± 1.1 | Eosinophils [14]: 0.12 10^9/L | Lymphocytes [14]: 2.1 ± 0.7 | Neutrophil cell counts [14]: 2.9 ± 0.6 | White blood cells counts [14]: 5.5 ± 1.1 | Eosinophils [15]: 0.1 10^9/L | Lymphocytes [15]: 1.7 ± 0.5 | Neutrophil cell counts [15]: 3.0 ± 1.0 | White blood cells counts [15]: 5.2 ± 1.3 | Eosinophils [16]: 0.28 10^9/L | Lymphocytes [16]: 2.2 ± 0.6 | Neutrophil cell counts [16]: 3.4 ± 1.1 | White blood cells counts [16]: 6.3 ± 1.4 | Eosinophils (MAD 20.0 mg/kg, Day 2 predose): 0.17 10^9/L | Lymphocytes (MAD 20.0 mg/kg, Day 2 predose): 2.9 ± 0.8 | Neutrophil cell counts (MAD 20.0 mg/kg, Day 2 predose): 4.5 ± 1.2 | White blood cells counts (MAD 20.0 mg/kg, Day 2 predose): 8.0 ± 1.3 | Eosinophils (MAD 20.0 mg/kg, Day 3 predose): 0.15 10^9/L | Lymphocytes (MAD 20.0 mg/kg, Day 3 predose): 2.9 ± 0.7 | Neutrophil cell counts (MAD 20.0 mg/kg, Day 3 predose): 4.3 ± 1.2 | White blood cells counts (MAD 20.0 mg/kg, Day 3 predose): 7.9 ± 0.7 | Eosinophils (MAD 20.0 mg/kg, Day 7 predose): 0.15 10^9/L | Lymphocytes (MAD 20.0 mg/kg, Day 7 predose): 3.2 ± 0.9 | Neutrophil cell counts (MAD 20.0 mg/kg, Day 7 predose): 4.4 ± 0.7 | White blood cells counts (MAD 20.0 mg/kg, Day 7 predose): 8.2 ± 1.0 | Eosinophils (MAD 20.0 mg/kg, Day 12 predose): 0.12 10^9/L | Lymphocytes (MAD 20.0 mg/kg, Day 12 predose): 3.2 ± 0.4 | Neutrophil cell counts (MAD 20.0 mg/kg, Day 12 predose): 4.4 ± 0.4 | White blood cells counts (MAD 20.0 mg/kg, Day 12 predose): 8.3 ± 0.5 | Eosinophils (MAD 20.0 mg/kg, Day 14 predose): 0.16 10^9/L | Lymphocytes (MAD 20.0 mg/kg, Day 14 predose): 3.1 ± 0.4 | Neutrophil cell counts (MAD 20.0 mg/kg, Day 14 predose): 4.6 ± 0.4 | White blood cells counts (MAD 20.0 mg/kg, Day 14 predose): 8.5 ± 0.4 | Eosinophils [17]: 0.16 10^9/L | Lymphocytes [17]: 2.2 ± 0.3 | Neutrophil cell counts [17]: 4.0 ± 0.3 | White blood cells counts [17]: 6.8 ± 0.2 | Eosinophils [18]: 0.26 10^9/L | Lymphocytes [18]: 2.2 ± 0.3 | Neutrophil cell counts [18]: 4.0 ± 0.3 | White blood cells counts [18]: 6.8 ± 0.4 | Eosinophils [19]: 0.32 10^9/L | Lymphocytes [19]: 2.6 ± 0.5 | Neutrophil cell counts [19]: 3.9 ± 1.1 | White blood cells counts [19]: 7.3 ± 1.1 | Eosinophils [20]: 0.25 10^9/L | Lymphocytes [20]: 2.0 ± 0.5 | Neutrophil cell counts [20]: 3.5 ± 1.2 | White blood cells counts [20]: 6.1 ± 1.1 | white blood cell counts (any MAD dose group): No significant changes
